{"source": "patent US4752614A", "about": "“Pharmaceutical compositions of tellerium and selenium compounds for the induction of in vivo and in vitro production of cytokines” (Bar-Ilan University, priority 1987, dated 1988)", "key": {"[1]": {"experiment": "Preliminary toxicity (LD50) in mice", "format": "in vivo", "details": "6 week old mice"}, "CSF": {"system": "CSF", "experiment": "In vitro induction of colony stimulating factor (CSF) from mouse spleen cells (Example 7)", "format": "cell-based, male Balb-c mice", "method": "This example describes the in vitro making of IL-2 and CSF from mouse spleen cells using the compound of Example 1 as the extrinsic stimulating agent.\nSpleens were removed from 15, male Balb-c mice 6 to 8 weeks of age. The spleen cells were pushed through stainless steel 60 mesh (U.S. standard) nets resting in 5 mm Petri dishes containing PBS in order to separate the cells. The cells were then collected into centrifuge tubes and spun at 1000 rpm for 10 minutes. The supernatant was discarded and cells were treated with 5 ml of hypotonic buffer (0.15M NH4 Cl; 0.01M KHCO3 dissolved in double distilled water, pH 7.2) for exactly two minutes. Thereafter, PBS was added to the cells and the test tubes were centrifuged for 10 minutes at 1000 rpm. The cells were rinsed twice and counted in a heamocytometer using trypan blue to test for viability. The cells were brought to a concentration of 10^7 viable cells/ml. The cells were contacted with varying amounts of the compound of Example 1 in 1 ml of 40% DMSO 60% PBS."}, "IL-2 [2]": {"system": "IL-2", "experiment": "IL-2 activity of supernatants of human mononuclear cells on CTLD cells (Example 8)", "format": "cell-based", "details": "72 hours"}, "IL-2 [3]": {"system": "IL-2", "experiment": "Oral administration in drinking water, IL-2 content of spleen cell supernatants (Example 13)", "format": "in vivo, male Balb-C mice", "details": "1 μg/ml H2O, 4 days", "method": "The water solution was prepared by dissolving the compounds in PBS at a concentration of 50 μg/ml PBS and diluting the resulting solution to the desired concentration. The compounds were administered over a 4 day period. The exact amount of liquid intake was recorded daily. […] The cells were incubated at a concentration of 10^7 cells/ml in enriched RPMI containing 2 μg/ml of con-A for 24 hours at 37° C. The supernatants were collected and tested for IL-2 content."}, "IL-2 [4]": {"system": "IL-2", "experiment": "IL-2 secretion by mouse spleen cells in vitro, CTLD proliferation (Example 17)", "format": "cell-based, male Balb/c mice", "details": "24 hours, 1 μg/ml of cell mixture", "method": "The compounds listed below were tested in vitro at various concentrations that ranged from 10 μg/ml cells to 1×10^-6 μg/ml of cell mixtures. Cells were obtained from spleens of male Balb/c mice 6-8 weeks of age. Spleens were pushed through a stainless steel 60 mesh strainer to separate cells."}, "IL-2 receptors": {"system": "IL-2 receptors", "experiment": "Induction of IL-2 receptors of human mononuclear cells, proliferation with recombinant IL-2 (Example 18)", "format": "cell-based", "method": "Human MNC were brought to a concentration of 10^6 cells/ml. RPMI+10% FCS. Aliquots of 0.2 ml. were placed in duplicate wells of microdishes and plates were incubated at 37° C. for 24 hrs. […] Plates were further incubated for 48 hrs. and labelled with 3H thymidine 24 hrs. before harvesting.\nThe proliferation was measured by ^3 HT uptake as described by Gillis et al, J. Immunol. […] The results are expressed in counts per minute."}, "human mononuclear cells": {"system": "human mononuclear cells", "experiment": "Proliferation of human mononuclear cells (Example 19)", "format": "cell-based", "method": "Human mononuclear cells were obtained by layering heparinized blood over a Ficoll/Hypaque gradient. The mononuclear cells were resuspended in enriched RPMI, rinsed three times and brought to a concentrations of 5×10^5 cells/ml encriched RPMI. […] Aliquots of 0.2 ml of each sample were placed in wells of microplates (triplicates). Microplates were incubated for 72 hours at 37° C. after which they were labelled with H^3 methyl-thymidine 1 μCi/well for an additional 24 hours. Cells were then harvested with a cell harvester."}, "IL-2 [5]": {"system": "IL-2", "experiment": "IL-2 production by human mononuclear cells of normal donors and SLE patients (Example 20)", "format": "cell-based", "method": "Using the procedure of Example 4, human mononuclear cells were tested for their ability to produce IL-2 after induction with PHA or in unstimulated cells from normal donors and from patients suffering from systemic lupus erthyrematous. The IL-2 content was tested according to the procedure of Example 3 using the CTLD IL-2 dependent cell line."}}, "note": "Several values for one entry are separate records, joined by “and”; a condition that tells them apart may be missing. Equal values may be shown once.", "data": [{"compound": "Cl[TeH]1(Cl)(Cl)OCCO1", "note": "[Example 1]", "values": [{"measurement": "LD50", "setting": "[1]", "value": "300 μg./25 g of body weight"}, {"measurement": "CSF", "setting": "CSF; 5 pg", "value": 140, "unit": "colonies/dish"}, {"measurement": "CSF", "setting": "CSF; 50 pg", "value": 260, "unit": "colonies/dish"}, {"measurement": "CSF", "setting": "CSF; 500 pg", "value": 175, "unit": "colonies/dish"}, {"measurement": "CSF", "setting": "CSF; 5 ng", "value": 120, "unit": "colonies/dish"}, {"measurement": "CSF", "setting": "CSF; 50 ng", "value": 75, "unit": "colonies/dish"}, {"measurement": "CSF", "setting": "CSF; 500 ng", "value": 25, "unit": "colonies/dish"}, {"measurement": "CSF", "setting": "CSF; 5 μg", "value": 5, "unit": "colonies/dish"}, {"measurement": "CSF", "setting": "CSF; 50 μg", "value": 2, "unit": "colonies/dish"}, {"measurement": "IL-2 activity", "setting": "IL-2 [2]; 1 ng", "value": "11,000 Counts per minute"}, {"measurement": "IL-2 activity", "setting": "IL-2 [2]; 10 ng", "value": "1,500 Counts per minute"}, {"measurement": "IL-2 activity", "setting": "IL-2 [2]; 1 μg", "value": 250, "unit": "Counts per minute"}, {"measurement": "IL-2 activity", "setting": "IL-2 [2]; 100 μg", "value": 280, "unit": "Counts per minute"}, {"measurement": "IL-2 content", "setting": "IL-2 [3]", "value": 49179, "unit": "cpm"}, {"measurement": "Percent increase as compared to control", "setting": "IL-2 [3]", "value": "+50%"}, {"measurement": "Spleen Cells (IL-2 activity)", "setting": "IL-2 [4]", "value": "14,600 cpm"}, {"measurement": "activation at 1 µg/mL", "setting": "IL-2 [4]; Mus musculus, read-out: Spleen Cells, percent in parentheses (increase over control)", "value": 472, "unit": "%"}, {"measurement": "proliferation (3HT uptake)", "setting": "IL-2 receptors; Test A, 1 μg/ml", "value": "28625 counts per minute and 27593 counts per minute"}, {"measurement": "proliferation (3HT uptake)", "setting": "IL-2 receptors; Test A, 1 × 10^-3 μg/ml", "value": "3652 counts per minute and 5055 counts per minute"}, {"measurement": "proliferation (3HT uptake)", "setting": "IL-2 receptors; Test A, 1 × 10^-4 μg/ml", "value": "3558 counts per minute and 4047 counts per minute"}, {"measurement": "proliferation (3HT uptake)", "setting": "IL-2 receptors; Test A, 1 × 10^-5 μg/ml", "value": "2474 counts per minute and 4063 counts per minute"}, {"measurement": "proliferation (3HT uptake)", "setting": "IL-2 receptors; Test A, 5 × 10^-1 μg/ml", "value": "120755 counts per minute and 105943 counts per minute"}, {"measurement": "proliferation (3HT uptake)", "setting": "IL-2 receptors; Test B, 1 μg/ml", "value": 23488, "unit": "counts per minute"}, {"measurement": "proliferation (3HT uptake)", "setting": "IL-2 receptors; Test B, 1 × 10^-2 μg/ml", "value": 6057, "unit": "counts per minute"}, {"measurement": "proliferation (3HT uptake)", "setting": "IL-2 receptors; Test B, 1 × 10^-3 μg/ml", "value": 5865, "unit": "counts per minute"}, {"measurement": "proliferation (3HT uptake)", "setting": "IL-2 receptors; Test B, 1 × 10^-4 μg/ml", "value": 4960, "unit": "counts per minute"}, {"measurement": "proliferation (3HT uptake)", "setting": "IL-2 receptors; Test B, 1 × 10^-5 μg/ml", "value": 7155, "unit": "counts per minute"}, {"measurement": "proliferation (3HT uptake)", "setting": "IL-2 receptors; Test B, 5 × 10^-1 μg/ml", "value": 66910, "unit": "counts per minute"}, {"measurement": "proliferation (3HT uptake)", "setting": "IL-2 receptors; Test B, 5 × 10^-2 μg/ml", "value": 5390, "unit": "counts per minute"}, {"measurement": "proliferation (3HT uptake)", "setting": "IL-2 receptors; Test B, 7 × 10^-1 μg/ml", "value": 17620, "unit": "counts per minute"}, {"measurement": "proliferation of human mononuclear cells", "setting": "human mononuclear cells; first part of table, 1 × 10^-3 μg/ml", "value": "2553 and 2180"}, {"measurement": "proliferation of human mononuclear cells", "setting": "human mononuclear cells; first part of table, 1 × 10^-4 μg/ml", "value": "3838 and 2387"}, {"measurement": "proliferation of human mononuclear cells", "setting": "human mononuclear cells; first part of table, 1 × 10^-5 μg/ml", "value": "3218 and 2442"}, {"measurement": "proliferation of human mononuclear cells", "setting": "human mononuclear cells; first part of table, 5 × 10^-1 μg/ml", "value": "18515 and 33700"}, {"measurement": "proliferation of human mononuclear cells", "setting": "human mononuclear cells; second part of table, 1 μg/ml", "value": "6000 and 5600"}, {"measurement": "proliferation of human mononuclear cells", "setting": "human mononuclear cells; second part of table, 5 μg/ml", "value": "5008 and 5182"}, {"measurement": "proliferation of human mononuclear cells", "setting": "human mononuclear cells; second part of table, 1 × 10^-1 μg/ml", "value": "7037 and 10382"}, {"measurement": "proliferation of human mononuclear cells", "setting": "human mononuclear cells; second part of table, 1 × 10^-2 μg/ml", "value": "6898 and 5712"}, {"measurement": "proliferation of human mononuclear cells", "setting": "human mononuclear cells; second part of table, 1 × 10^-3 μg/ml", "value": "5800 and 6000"}, {"measurement": "proliferation of human mononuclear cells", "setting": "human mononuclear cells; second part of table, 1 × 10^-4 μg/ml", "value": "5513 and 6212"}, {"measurement": "proliferation of human mononuclear cells", "setting": "human mononuclear cells; second part of table, 5 × 10^-1 μg/ml", "value": "20488 and 13600"}, {"measurement": "proliferation of human mononuclear cells", "setting": "human mononuclear cells; second part of table, 5 × 10^-2 μg/ml", "value": "5520 and 5765"}, {"measurement": "IL-2 production", "setting": "IL-2 [5]; SLE, PHA +, 5 μg 0.2 ml PBS", "value": "6.3 CPM × 10^-3 and 8.2 CPM × 10^-3 and 4.1 CPM × 10^-3"}, {"measurement": "IL-2 production", "setting": "IL-2 [5]; SLE, PHA +, 1:50 PBS", "value": "24.2 CPM × 10^-3 and 28.1 CPM × 10^-3 and 23.8 CPM × 10^-3"}, {"measurement": "IL-2 production", "setting": "IL-2 [5]; SLE, PHA +, 1:100 PBS", "value": "19.7 CPM × 10^-3 and 24.0 CPM × 10^-3 and 20.2 CPM × 10^-3"}, {"measurement": "IL-2 production", "setting": "IL-2 [5]; SLE, PHA +, 1:200 PBS", "value": "15.4 CPM × 10^-3 and 18.6 CPM × 10^-3 and 16.8 CPM × 10^-3"}, {"measurement": "IL-2 production", "setting": "IL-2 [5]; SLE, PHA -, 5 μg 0.2 ml PBS", "value": "2.0 CPM × 10^-3 and 2.4 CPM × 10^-3"}, {"measurement": "IL-2 production", "setting": "IL-2 [5]; SLE, PHA -, 1:100 PBS", "value": "32.1 CPM × 10^-3 and 35.1 CPM × 10^-3 and 18.1 CPM × 10^-3"}, {"measurement": "IL-2 production", "setting": "IL-2 [5]; normal, PHA +, 5 μg 0.2 ml PBS", "value": "36.4 CPM × 10^-3 and 30.4 CPM × 10^-3 and 38.9 CPM × 10^-3"}, {"measurement": "IL-2 production", "setting": "IL-2 [5]; normal, PHA +, 1:50 PBS", "value": "48.2 CPM × 10^-3 and 38.9 CPM × 10^-3 and 53.5 CPM × 10^-3"}, {"measurement": "IL-2 production", "setting": "IL-2 [5]; normal, PHA +, 1:100 PBS", "value": "46.2 CPM × 10^-3 and 54.2 CPM × 10^-3 and 44.8 CPM × 10^-3"}, {"measurement": "IL-2 production", "setting": "IL-2 [5]; normal, PHA +, 1:200 PBS", "value": "38.6 CPM × 10^-3 and 49.8 CPM × 10^-3 and 38.3 CPM × 10^-3"}, {"measurement": "IL-2 production", "setting": "IL-2 [5]; normal, PHA -, 5 μg 0.2 ml PBS", "value": "2.3 CPM × 10^-3 and 2.1 CPM × 10^-3"}, {"measurement": "IL-2 production", "setting": "IL-2 [5]; normal, PHA -, 1:50 PBS", "value": "43.6 CPM × 10^-3 and 52.2 CPM × 10^-3 and 50.8 CPM × 10^-3"}, {"measurement": "IL-2 production", "setting": "IL-2 [5]; normal, PHA -, 1:100 PBS", "value": "38.4 CPM × 10^-3 and 50.3 CPM × 10^-3 and 46.1 CPM × 10^-3"}, {"measurement": "IL-2 production", "setting": "IL-2 [5]; normal, PHA -, 1:200 PBS", "value": "30.1 CPM × 10^-3 and 47.1 CPM × 10^-3 and 31.3 CPM × 10^-3"}]}]}
